Experimental data: US20120141496A1, “IAP BIR DOMAIN BINDING COMPOUNDS” (AEGERA THERAPEUTICS, INC., priority 2007, published 2012)

Experiments:
[1] = test system: SKOV-3; test: Viability assay (MTT based), SKOV-3; type: cell-based; settings: Homo sapiens, SK-OV-3, SKOV-3 cells, 72 hours, read-out: SKOV-3 ED50
Method: (§1) MDA-MD-231 (breast) and SKOV-3 cancer cells were cultured in RPMI1640 media supplemented with 10% FBS and 100 units/mL of Penicillin and Streptomycin.
(§2) Viability assays were done on a number of cells including MDA-MB-231, SKOV-3, H460, PC3, HCT-116, and SW480 cells. Cells were seeded in 96 well plates at a respective density of 5000 and 2000 cells per well and incubated at 37° C. in presence of 5% CO2 for 24 hours. Selected compounds were diluted into the media at various concentration ranging from 0.01 uM up to 100 uM. Diluted compounds were added onto the MDA-MB-231 cells. For the MDA-MB-231 SKOV3, H460, PC3, HCT-116, and SW480 cells, the compounds were added either alone or in presence of 1-3 ng/ml of TRAIL. After 72 hours cellular viability was evaluated by MTT based assays.

[2] = test system: MDA-MB-231; test: Viability assay (MTT based), MDA-MB-231; type: cell-based; settings: Homo sapiens, MDA-MB-231 cells, 72 hours, read-out: MDA-MB-231 ED50
Method: as §1, §2

Compound	EC50 [1] [nM]	EC50 [2] [nM]
CN[C@@H](CO)C(=O)N[C@@H](Cc1ccc(C#CCO[C@H](C)[C@H](NC(=O)[C@H](CO)NC)C(=O)N2CCC[C@H]2CN(CCc2ccccc2)C(=O)[C@H](N)Cc2ccc(OC)cc2)cc1)C(=O)N1CCC[C@H]1CN(CCc1ccccc1)C(=O)C(F)(F)F [Compound 8]	1920	
CN[C@@H](C)C(=O)N[C@@H](Cc1ccc(C#CCO[C@H](C)[C@H](NC(=O)[C@H](C)NC)C(=O)N2CCC[C@H]2CN(CCc2ccccc2)C(=O)[C@H](N)Cc2ccc(OC)cc2)cc1)C(=O)N1CCC[C@H]1CN(CCc1ccccc1)C(=O)C(F)(F)F [Compound 5]	57	
CN[C@@H](C)C(=O)N[C@@H](Cc1ccc(C#CCO[C@H](C)[C@H](NC(=O)[C@H](C)NC)C(=O)N2CCC[C@H]2CN(CCc2ccccc2)C(=O)C(F)(F)F)cc1)C(=O)N1CCC[C@H]1CN(CCc1ccccc1)C(=O)C(F)(F)F [Compound 1]	131	17
CN[C@@H](C)C(=O)N[C@@H](Cc1ccc(C#Cc2ccc(C[C@H](NC(=O)[C@H](C)NC)C(=O)N3CCC[C@H]3CN(CCc3ccccc3)C(=O)C(F)(F)F)cc2)cc1)C(=O)N1CCC[C@H]1CN(CCc1ccccc1)C(=O)C(F)(F)F [Compound 4]	37	159
CN[C@@H](C)C(=O)N[C@H](C(=O)N1CCC[C@H]1CN(CCc1ccccc1)C(=O)[C@H](N)Cc1ccc(OC)cc1)[C@@H](C)OCC#Cc1ccc(C[C@H](NC(=O)[C@H](CO)NC)C(=O)N2CCC[C@H]2CN(CCc2ccccc2)C(=O)C(F)(F)F)cc1 [Compound 7]	136	
CN[C@@H](C)C(=O)N[C@@H](Cc1ccc(C#CCO[C@H](C)[C@H](NC(=O)[C@H](CO)NC)C(=O)N2CCC[C@H]2CN(CCc2ccccc2)C(=O)[C@H](N)Cc2ccc(OC)cc2)cc1)C(=O)N1CCC[C@H]1CN(CCc1ccccc1)C(=O)C(F)(F)F [Compound 6]	557	
CN[C@@H](C)C(=O)N[C@@H](Cc1ccc(-c2ccc(C[C@H](NC(=O)[C@H](C)NC)C(=O)N3CCC[C@H]3CN(CCc3ccccc3)C(=O)C(F)(F)F)cc2)cc1)C(=O)N1CCC[C@H]1CN(CCc1ccccc1)C(=O)C(F)(F)F [Compound 2]		150
CN[C@@H](C)C(=O)N[C@@H](Cc1ccc(C#CC#Cc2ccc(C[C@H](NC(=O)[C@H](C)NC)C(=O)N3CCC[C@H]3CN(CCc3ccccc3)C(=O)C(F)(F)F)cc2)cc1)C(=O)N1CCC[C@H]1CN(CCc1ccccc1)C(=O)C(F)(F)F [Compound 3]	67	
